Measurements published in ChEMBL document CHEMBL1201862, “PubChem BioAssay data set” (2004).
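96-well plates; 48 h exposure; 5 concentrations. Endpoints by linear interpolation between flanking doses. Not reached: highest tested concentration assigned. The concentration for 50% growth inhibition is given as GI50.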 Calls of active or inactive are those of the source. Rule as the data show it: active = GI50 up to about 1.1 µM and inactive = higher.

What was measured:
Experiment in all cases: growth of human tumour cells (NCI), 48 h
A549 = tested on: A549
CCRF-CEM = tested on: CCRF-CEM
DU-145 = tested on: DU-145
EKVX = tested on: EKVX
HCT-116 = tested on: HCT-116
HOP-62 = tested on: HOP-62
HT-29 = tested on: HT-29
LOX IMVI = tested on: LOX IMVI
M14 = tested on: M14
MDA-N = tested on: MDA-N
NCI-H23 = tested on: NCI-H23
OVCAR-5 = tested on: OVCAR-5
OVCAR-8 = tested on: OVCAR-8
PC-3 = tested on: PC-3
SN12C = tested on: SN12C
SNB-19 = tested on: SNB-19
SNB-75 = tested on: SNB-75
SR = tested on: SR
SW-620 = tested on: SW-620
KM-20L2 = tested on: KM-20L2

| SMILES | GI50 (A549) | GI50 (CCRF-CEM) | GI50 (DU-145) | GI50 (EKVX) | GI50 (HCT-116) | GI50 (HOP-62) | GI50 (HT-29) | GI50 (LOX IMVI) | GI50 (M14) | GI50 (MDA-N) | GI50 (NCI-H23) | GI50 (OVCAR-5) | GI50 (OVCAR-8) | GI50 (PC-3) | GI50 (SN12C) | GI50 (SNB-19) | GI50 (SNB-75) | GI50 (SR) | GI50 (SW-620) | GI50 (KM-20L2) |
| --- | --- | --- | --- | --- | --- | --- | --- | --- | --- | --- | --- | --- | --- | --- | --- | --- | --- | --- | --- | --- |
| COCC(=O)OC1CCn2c1nc1c2C(=O)C(C)=C(NC(C)=O)C1=N (stereo unspecified) | 21.3 µM (inactive) | 2.1 µM (inactive) | 20.4 µM (inactive) | 12.3 µM (inactive) | 3.08 µM (inactive) | 15.6 µM (inactive) | 4.21 µM (inactive) | 2.53 µM (inactive) | 4.95 µM (inactive) | 1.82 µM (inactive) | 4.34 µM (inactive) | 9.91 µM (inactive) | 2.56 µM (inactive) | 2.58 µM (inactive) | 3.72 µM (inactive) | 17.9 µM (inactive) | 15.3 µM (inactive) | 2.64 µM (inactive) | 2.49 µM (inactive) | – |
| O=C(CCSC1=NCCCN1)c1ccc(F)cc1 | 20.4 µM (inactive) | 2.61 µM (inactive) | 17.4 µM (inactive) | 12.7 µM (inactive) | 20.1 µM (inactive) | 27.8 µM (inactive) | 20.2 µM (inactive) | 18.9 µM (inactive) | 15.6 µM (inactive) | 17.3 µM (inactive) | 19.4 µM (inactive) | 15 µM (inactive) | 31.9 µM (inactive) | 14.9 µM (inactive) | 22.2 µM (inactive) | 22.1 µM (inactive) | 19 µM (inactive) | 3.3 µM (inactive) | 2.86 µM (inactive) | – |
| O=C(Cc1cc[n+]([O-])cc1)C(=O)Nc1cc(Cl)c(Cl)cc1Cl | > 100 µM (inactive) | > 100 µM (inactive) | – | > 100 µM (inactive) | > 100 µM (inactive) | > 100 µM (inactive) | – | – | > 100 µM (inactive) | – | > 100 µM (inactive) | > 100 µM (inactive) | > 100 µM (inactive) | – | – | > 100 µM (inactive) | 77.1 µM (inactive) | – | > 100 µM (inactive) | > 100 µM (inactive) |
| CCCc1nc(Cl)nc(Cl)c1Cl | 2.22 µM (inactive) | < 0.0264 µM (active) | 2.41 µM (inactive) | 1.03 µM (active) | 0.259 µM (active) | 0.908 µM (active) | 0.269 µM (active) | 0.0865 µM (active) | 0.336 µM (active) | 0.0234 µM (active) | 0.45 µM (active) | 0.817 µM (active) | 0.456 µM (active) | 0.438 µM (active) | 0.726 µM (active) | 1.16 µM (inactive) | 1.22 µM (inactive) | < 0.0154 µM (active) | 0.0675 µM (active) | – |
| Oc1ccc2ccccc2c1/N=N/c1ccc(Cl)cc1 | > 100 µM (inactive) | > 100 µM (inactive) | > 100 µM (inactive) | > 100 µM (inactive) | 51.9 µM (inactive) | > 100 µM (inactive) | > 100 µM (inactive) | 24.8 µM (inactive) | > 100 µM (inactive) | > 100 µM (inactive) | > 100 µM (inactive) | > 100 µM (inactive) | > 100 µM (inactive) | > 100 µM (inactive) | > 100 µM (inactive) | > 100 µM (inactive) | > 100 µM (inactive) | 39.5 µM (inactive) | > 100 µM (inactive) | – |
| O=C1/C(=C/c2ccc3c(c2)CCC3)Cc2cc3c(cc21)CCC3 | > 100 µM (inactive) | > 100 µM (inactive) | > 100 µM (inactive) | > 100 µM (inactive) | > 100 µM (inactive) | > 100 µM (inactive) | > 100 µM (inactive) | > 100 µM (inactive) | > 100 µM (inactive) | > 100 µM (inactive) | > 100 µM (inactive) | > 100 µM (inactive) | > 100 µM (inactive) | > 100 µM (inactive) | > 100 µM (inactive) | 61.9 µM (inactive) | 26.2 µM (inactive) | > 100 µM (inactive) | > 100 µM (inactive) | – |
| COc1cc(-c2cc(=O)c3cc4c(=O)cc(-c5cc(OC)c(OC)c(OC)c5)oc4cc3o2)cc(OC)c1OC | 88.9 µM (inactive) | > 100 µM (inactive) | 35.7 µM (inactive) | > 100 µM (inactive) | 30.9 µM (inactive) | 12.6 µM (inactive) | > 100 µM (inactive) | 36.1 µM (inactive) | 60.3 µM (inactive) | > 100 µM (inactive) | 25.8 µM (inactive) | > 100 µM (inactive) | 27 µM (inactive) | > 100 µM (inactive) | 32.4 µM (inactive) | 16.4 µM (inactive) | 13.5 µM (inactive) | > 100 µM (inactive) | > 100 µM (inactive) | – |
| O=C(O)CC(Nc1ccccc1)C(=O)O (stereo unspecified) | > 100 µM (inactive) | > 100 µM (inactive) | > 100 µM (inactive) | > 100 µM (inactive) | > 100 µM (inactive) | > 100 µM (inactive) | > 100 µM (inactive) | > 100 µM (inactive) | > 100 µM (inactive) | > 100 µM (inactive) | > 100 µM (inactive) | > 100 µM (inactive) | > 100 µM (inactive) | > 100 µM (inactive) | > 100 µM (inactive) | > 100 µM (inactive) | > 100 µM (inactive) | > 100 µM (inactive) | > 100 µM (inactive) | – |
